Reference: patent US20120135866A1, “INCREASING PLANT VIGOR” (DOW AGROSCIENCES LLC, priority 2007, published 2012)
“Also recorded” adds a separate entry of the source.

Columns and labels:
Assay type in all cases: in vivo
[1] = test system: plant grown from soaked seeds; test: Test 1: plant weight (aerial portion) after seed soak
Experimental: (§1) Seeds were soaked beginning on T=0 days in solutions of either
(§2) Compound A, imidacloprid, or plain water containing 0.125% (v:v) Tween 20 (check treatment). Compounds were formulated as technical material in water containing 0.125% Tween 20. […] Solution concentrations were 50, 5, 0.5, 0.05 and 0.005 ppm. No evaporation was possible and a significant excess of solution was present to ensure abundant availability of either Compound A or imidacloprid from each solution. On average 20 ml of solution was used to soak groups of seed needed for the seed soaking phase of this test. Seeds were removed from these solutions on T=2 days and planted. Seeds exposed to each unique treatment were germinated as a groups in dedicated shallow plastic cups filled with white sand and containing plain water. Planting of these seeds occurred on T=2 days and the seeds were grown in these shallow cups until T=10 days. Initially 70 ml of water was added to each shallow cup at planting and additional water was added to the cups as needed to keep the sand moist. On T=10 days germinating seedlings were transplanted from the shallow germination cups to individual containers (plastic cups−6 reps per treatment) filled with white sand. Thirty ml of water was used to water the plants following transplanting. After the initial treatment water was added to cups as needed to maintain moisture for plant development. On T=14 days each plant was infested with cotton aphid (CA) Aphis gossypii by transferring a small piece of infested foliage to each test plant. The number of aphids transferred to each plant was uniform based on visual estimation. Plants were rated on T=17 days and T=18 days by counting the number of CA and taking the weight of the each plant. The plant part weighed was the aerial portion of the plant cut off at the surface of the sand. Data were analyzed using analysis of variance with an LSD means separation test (Minitab).
Treatment number 4 experienced some negative effects associated with excess watering during the phase when these plants were being germinated. […] Only four replicate plants were able to be planted to individual growing cups. […] Prior to conducting an analysis of individual treatment effects (factorial analysis of variance, LSD means separation test P=0.05, Minitab) on weight Treatment 4 (Compound A 0.05 ppm) was removed from the analysis because it was judged to be an outlier based on poor growth as described above. The paired imidacloprid rate (0.05 ppm, No. 9) was also removed to keep the data balanced.

[2] = test system: cotton aphid (CA) Aphis gossypii; test: Test 1: cotton aphid counts on plants grown from soaked seeds
Experimental: as §1, §2
Raw data were not homogeneous and so replicate aphid counts were transformed using a square root count+0.5 transformation.

[3] = test system: Corn (Zea mays 'M2T783') seeds; test: Test 2: fresh plant weight of corn after seed soak
Experimental: Technical samples of Compound A and imidacloprid were dissolved in water containing 0.125% Tween 20 (V:V). […] The treatment concentrations for Compound A and imidacloprid were 50, 12.5, 3.125, 0.78 and 0.19 ppm. Solutions were prepared in excess and 40 ml was added to 50 ml centrifuge tubes. Corn (Zea mays ‘M2T783’) seeds were inspected for uniform size and undamaged condition and were placed into each centrifuge tube containing specific compound by rate solutions. A treatment of only 0.125% aqueous Tween 20 was used to soak corn seeds and served as the untreated check. Tubes containing seeds and compound solutions were held at room temperature and after […] the seeds were removed from each solution, rinsed and planted into sand in 7.5 cm^2 pots. Tissue paper was placed into the bottom of each pot to keep sand from leaching from the pot. A total of 8 reps of each compound by rate combination were planted for both corn. Eight replicate pots of compound by rate combination were arranged in a completely randomized design on greenhouse carts. This arrangement of treated seeds in pots was placed into the greenhouse and watered over the top as needed. Each cart was equipped with a plastic rack that served to raise the pots up off the cart surface and away from any standing water. The carts were placed in the center of the greenhouse and were rotated 180 degrees daily. After 13 days the carts were moved to the laboratory and the plants were cut off at the soil surface and weighed. Fresh plant weight data were analyzed for homogeneity of variance using Levene's test and further evaluated using one way analysis of variance of individual treatment combinations (compound by rate) and pooled by compound across rates. Means were separated using Tukey's mean separation test with a family-wise error rate of 0.05. All analyses were conducted using Minitab
Corn data were homogeneous based on Levene's test for homgeneity of variance (p=0.116 and p=0.69 respectively). AOV of corn data did indicate a difference (F=3.22, P=0.045, df=2) for pooled compound effects but not for individual treatment effects.

Structure (SMILES): O=[N+]([O-])NC1=NCCN1Cc1ccc(Cl)nc1 [Imidacloprid, imidacloprid]
- Effect on plant weight vs check ([1]; Test 1, seed soak): increased plant weights compared to the check plants
- Plant Weight (g) Rep 1 ([1]; seed soak 0.005 ppm): 2.07 g
- Plant Weight (g) Rep 2 ([1]; seed soak 0.005 ppm): 1.59 g
- Plant Weight (g) Rep 3 ([1]; seed soak 0.005 ppm): 2.01 g
- Plant Weight (g) Rep 4 ([1]; seed soak 0.005 ppm): 1.67 g
- Plant Weight (g) Rep 5 ([1]; seed soak 0.005 ppm): 1.86 g
- Plant Weight (g) Rep 6 ([1]; seed soak 0.005 ppm): 1.68 g
- Plant Weight (g) Rep 1 ([1]; seed soak 0.05 ppm): 1.38 g
- Plant Weight (g) Rep 2 ([1]; seed soak 0.05 ppm): 1.37 g
- Plant Weight (g) Rep 3 ([1]; seed soak 0.05 ppm): 1.65 g
- Plant Weight (g) Rep 4 ([1]; seed soak 0.05 ppm): 1.57 g
- Plant Weight (g) Rep 5 ([1]; seed soak 0.05 ppm): 1.72 g
- Plant Weight (g) Rep 6 ([1]; seed soak 0.05 ppm): 1.62 g
- Plant Weight (g) Rep 1 ([1]; seed soak 0.5 ppm): 1.61 g
- Plant Weight (g) Rep 2 ([1]; seed soak 0.5 ppm): 1.82 g
- Plant Weight (g) Rep 3 ([1]; seed soak 0.5 ppm): 1.73 g
- Plant Weight (g) Rep 4 ([1]; seed soak 0.5 ppm): 2.05 g
- Plant Weight (g) Rep 5 ([1]; seed soak 0.5 ppm): 1.66 g
- Plant Weight (g) Rep 6 ([1]; seed soak 0.5 ppm): 1.95 g
- Plant Weight (g) Rep 1 ([1]; seed soak 5 ppm): 1.64 g
- Plant Weight (g) Rep 2 ([1]; seed soak 5 ppm): 1.44 g
- Plant Weight (g) Rep 3 ([1]; seed soak 5 ppm): 1.91 g
- Plant Weight (g) Rep 4 ([1]; seed soak 5 ppm): 1.44 g
- Plant Weight (g) Rep 5 ([1]; seed soak 5 ppm): 1.75 g
- Plant Weight (g) Rep 6 ([1]; seed soak 5 ppm): 2.05 g
- Plant Weight (g) Rep 1 ([1]; seed soak 50 ppm): 1.47 g
- Plant Weight (g) Rep 2 ([1]; seed soak 50 ppm): 2.05 g
- Plant Weight (g) Rep 3 ([1]; seed soak 50 ppm): 1.73 g
- Plant Weight (g) Rep 4 ([1]; seed soak 50 ppm): 1.84 g
- Plant Weight (g) Rep 5 ([1]; seed soak 50 ppm): 2.02 g
- Plant Weight (g) Rep 6 ([1]; seed soak 50 ppm): 1.86 g
- Effect on number of aphids vs check ([2]; Test 1, seed soak, compound main effect): significantly more aphids in the check treatment; also recorded: reduced the number of aphids on plants
- Aphids (#/plant) Rep 1 ([2]; seed soak 0.005 ppm): 45 #/plant
- Aphids (#/plant) Rep 2 ([2]; seed soak 0.005 ppm): 125 #/plant
- Aphids (#/plant) Rep 3 ([2]; seed soak 0.005 ppm): 55 #/plant
- Aphids (#/plant) Rep 4 ([2]; seed soak 0.005 ppm): 75 #/plant
- Aphids (#/plant) Rep 5 ([2]; seed soak 0.005 ppm): 80 #/plant
- Aphids (#/plant) Rep 6 ([2]; seed soak 0.005 ppm): 35 #/plant
- Aphids (#/plant) Rep 1 ([2]; seed soak 0.05 ppm): 95 #/plant
- Aphids (#/plant) Rep 2 ([2]; seed soak 0.05 ppm): 60 #/plant
- Aphids (#/plant) Rep 3 ([2]; seed soak 0.05 ppm): 65 #/plant
- Aphids (#/plant) Rep 4 ([2]; seed soak 0.05 ppm): 95 #/plant
- Aphids (#/plant) Rep 5 ([2]; seed soak 0.05 ppm): 75 #/plant
- Aphids (#/plant) Rep 6 ([2]; seed soak 0.05 ppm): 50 #/plant
- Aphids (#/plant) Rep 1 ([2]; seed soak 0.5 ppm): 25 #/plant
- Aphids (#/plant) Rep 2 ([2]; seed soak 0.5 ppm): 44 #/plant
- Aphids (#/plant) Rep 3 ([2]; seed soak 0.5 ppm): 43 #/plant
- Aphids (#/plant) Rep 4 ([2]; seed soak 0.5 ppm): 70 #/plant
- Aphids (#/plant) Rep 5 ([2]; seed soak 0.5 ppm): 80 #/plant
- Aphids (#/plant) Rep 6 ([2]; seed soak 0.5 ppm): 30 #/plant
- Aphids (#/plant) Rep 1 ([2]; seed soak 5 ppm): 33 #/plant
- Aphids (#/plant) Rep 2 ([2]; seed soak 5 ppm): 37 #/plant
- Aphids (#/plant) Rep 3 ([2]; seed soak 5 ppm): 17 #/plant
- Aphids (#/plant) Rep 4 ([2]; seed soak 5 ppm): 18 #/plant
- Aphids (#/plant) Rep 5 ([2]; seed soak 5 ppm): 30 #/plant
- Aphids (#/plant) Rep 6 ([2]; seed soak 5 ppm): 34 #/plant
- Aphids (#/plant) Rep 1 ([2]; seed soak 50 ppm): 0 #/plant
- Aphids (#/plant) Rep 2 ([2]; seed soak 50 ppm): 0 #/plant
- Aphids (#/plant) Rep 3 ([2]; seed soak 50 ppm): 4 #/plant
- Aphids (#/plant) Rep 4 ([2]; seed soak 50 ppm): 7 #/plant
- Aphids (#/plant) Rep 5 ([2]; seed soak 50 ppm): 4 #/plant
- Aphids (#/plant) Rep 6 ([2]; seed soak 50 ppm): 1 #/plant
- Plant Weight % increase ([3]; corn seedling weight vs untreated Tween 20 water check, pooled across rates): 24.8%
- Plant Weight (g) Mean ([3]; corn, seed soak, pooled across rates 50-0.19 ppm, fresh weight after 13 days): 2.841 g
- Tukey's pair-wise comparison of corn plant weight with untreated Tween 20 water check ([3]; pooled compound effects, family-wise error rate 0.05): not significantly different
